Literature values as cited in patent US20250082671A1, “ANIMAL FEED ADDITIVE COMPOSITION, PRE-MIX FEED COMPOSITION AND MANUFACTURING METHOD FOR SUB CLINICAL HYPCALCEMIA RELIEF, ENERGY IMPROVEMENT AND INCREASED MILK PRODUCTION” (Chemlock Metals Corp., priority 2023, published 2025).

Tested on: cows
Conditions: multiparous cows compared to un-supplemented ones

For chromium propionate complex, the “dry matter intake (DMI)” value is given as “on average higher”.
